Experimental data taken from patent publication US20120046272A1, “Novel Therapeutic Compounds” (GRUNENTHAL GMBH, priority 2010, published 2012).

System: mice
Test: Hot plate model of acute thermal pain
Type: in vivo
Details: hot plate 46.0° C.±1.0° C, tested prior to and 30 min after drug administration, cut-off 120 s
Protocol: The device consisted of an electrically heated surface and an open plexiglass tube (34 cm high×44 cm diameter), as per the hot plate test adapted from Eddy and Leimbach (1953); The animals were confined to the heated surface. The temperature was kept at 46.0° C.±1.0° C. Mice were placed on the hot plate, and the time, recorded with a stopwatch, until either licking of the hind paw or jumping were initiated. Animals were tested prior to and 30 min after drug administration. The pre-drug latencies were between 17 and 45 s. The maximum possible effect (MPE) was defined as the lack of a nociceptive response during the exposure to the heat stimulus. The percentage of MPE was calculated according to the formula: [(T1−T0)/(T2−T0)]×100, where T0 and T1 were the latencies obtained before and after drug injection, and T2 was the cut-off time (120 s).
Data are expressed as mean (±SEM) % MPE. p<0.05 versus vehicle control.

CCC(c1cccc(OC(=O)CC2(CN)CCCCC2)c1)C(C)CN(C)C (centres unmarked) [Compound of Formula 25]
antinociception in hot plate test (% MPE): induced dose-dependent antinociception and reached full efficacy

CN1CC[C@]23c4c5ccc(O)c4O[C@H]2[C@@H](O)C=C[C@H]3[C@H]1C5 [morphine]
antinociception in hot plate test (% MPE): induced dose-dependent antinociception and reached full efficacy
